# Data: article PMC9083030 (RSC Advances, 2018)
# Test system: QGY-7701 cell line
# Test: CCK-8 cell proliferation assay, QGY-7701
# Assay type: cell-based, human
# Details: read-out: IC50 QGY-7701; CCK8, 72 h of treatment
structure (smiles),measurement,value
N.N.[Cl][Pt][Cl] [Cisplatin],IC50,8.75 ± 0.26 µM
